Results on one compound are retold here after patent US12582614B2, “Composition for preventing, alleviating or treating sarcopenia, containing D-ribo-2-hexulose as active ingredient” (KYUNGPOOK NATIONAL UNIVERSITY INDUSTRY-ACADEMIC COOPERATION …, priority 2021, dated 2026).

Type in all cases: in vivo, C57BL/6J male mice
Data set [1] can be described thus: Body weight, food intake and organ weights of aged mice fed 3% D-ribo-2-hexulose diet for 12 weeks. As to the method:
Twenty-one 48-week-old C57BL/6J male mice and seven 8-week-old C57BL/6J male mice were purchased from JA BIO Inc. (Korea). The purchased animals were raised in a breeding room with a controlled temperature (20 to 23° C.) and a light/dark cycle (a 12-hour cycle), and were provided with pelletized commercial non-purified feed for the first week.
Specifically, a negative control group (NC, n=7, American Institute of Nutrition AIN-93G Semisynthetic diet); a D-ribo-2-hexulose-treated group (D-ribo-2-hexulose; DRH, n=7; a portion of cellulose in AIN-93G was replaced with 3% D-ribo-2-hexulose). […] The dose of D-ribo-2-hexulose was set at 3% based on previous animal studies. In the previous studies, the dose of D-ribo-2-hexulose was determined to be 3% in order to investigate a biological effect at a lower dose than the dose. During the experiment, the mice had free access to distilled water, and the food intakes and body weights of the mice were measured weekly, and blood glucose was measured once every 4 weeks. All animal experiments were approved by the Animal Research Ethics Committee of KyungPook National University (Approval Number: KNU-2020-109).

For data set [2], the system named is Akt, AMPK, PI3K, mTOR, PGC1-α, and phosphorylated variants thereof. Kind of data set: Western blotting of protein levels of muscle enhancement factors. The conditions noted are these: DRH group vs NC group. As to the method:
The amount of cytoplasmic and membrane proteins was quantified according to the Bradford method. Thereafter, a protein load was applied onto a 10% SDS-polyacrylamide gel, transferred to a Tris-glycine electrophoresis buffer for an hour, and then electrophoresed. The positions of the bands were confirmed using a Ponceau solution, blocking (5% skim milk in TBS/0.1% Tween-20) was performed at room temperature for 60 minutes in order to reduce non-specific reactions to the membrane. Then, the samples were reacted with a primary antibody overnight at 4° C.
Each of the antibodies was reacted with 5% skim milk diluted in the following ratios: Rabbit anti-mouse PGC1-α (1:1,000; Santa Cruz, USA), rabbit anti-mouse α-tubulin (1:1,000; Cell Signaling Technology, USA), rabbit anti-mouse p-Akt (1:1,000; Cell Signaling Technology, USA), rabbit anti-mouse Akt (1:1,000; Cell Signaling Technology, USA), rabbit anti-mouse p-PI3K (1:1,000; Cell Signaling Technology, USA), rabbit anti-mouse PI3K (1:1,000; Cell Signaling Technology), rabbit anti-mouse mTOR (1:1,000; Cell Signaling Technology, USA), rabbit anti-mouse TNF-α (1:1,000; Cell Signaling Technology, USA), rabbit anti-mouse adiponectin (1:1,000; Cell Signaling Technology, USA), rabbit anti-mouse haptoglobin (1:1,000; Abcam, USA), rabbit anti-mouse SCD1 (1:1,000; Cell Signaling Technology, USA), goat anti-mouse CerS1 (1:1,000; Novus Biologicals Ltd., USA), and rabbit anti-mouse NF-κB (1:000; Cell Signaling Technology, USA). The protein bands were washed, and the membrane was then reacted with a primary antibody in a TBST buffer (25 mM Tris-base, 155 mM NaCl, 0.1% Tween-20) in the presence of anti-rabbit IgG (1:1,000; Amersham Ltd., UK) or anti-goat IgG (1:1,000; ABcam Inc., USA) secondary antibodies for 30 minutes, and reacted at room temperature for an hour. Then, the membrane was washed again with a TBST buffer for 30 minutes. Immunoreactive bands were developed on a film using an ECL kit (Pierce Chemical Co., IL) to check the bands in a final state.
On the technique in general: Immunoblotting shows a protein as a band on a membrane.

The subject of data set [3] is differentially expressed genes (DEG). In words: RT-PCR and Western blotting verification of differentially expressed genes. Conditions: verification of mRNA-seq results. As to the method: After total RNA was isolated, total complementary DNA (cDNA) was synthesized. For real-time PCR analysis, template cDNA was diluted with RNAse-free water and used at a concentration of 25 ng/μL. Then, gene expression was analyzed using a QuantitTeck SYBR Green PCR kit (QIAGEN, Germany).
Each of the reaction solutions consisted of 10 μL of SYBR Green, 2 μL of a template, and 200 μM primers. RNAse-free water was added to a final volume of 20 μL, and reacted at 94° C. for 15 seconds, and then 58° C. and 72° C. for 30 seconds. The reaction solution was reacted 40 times at 65° C. for 30 seconds at 15 seconds per cycle. In this case, by monitoring the fluorescence signal for each cycle and analyzing the resulting threshold cycle (Ct), mRNA expression between the respective experimental groups was quantitatively analyzed using a CFX96 Real-time system (Bio-Rad, USA). […]
The amount of cytoplasmic and membrane proteins was quantified according to the Bradford method. […]

Data set [4] concerns hepatic glucose-6-phosphatase (G6P). Kind of data set: Hepatic glucose-6-phosphatase measurement. The conditions noted are these: DRH group vs NC group.
Data set [5] in a line: Lipid profiles of muscles and plasma. The protocol: Plasma TG and TC analysis was performed using an enzyme kit (Asan Pharmaceutical Co., Ltd., Korea). Free fatty acid (FFA) was also measured using an enzyme kit (Abcam., USA). Liver and muscle lipids were extracted, and the dried lipid residue was then dissolved in 1 mL of ethanol for the measurement of TG, TC, and FFA. For emulsification, Triton X-100 and a sodium cholate solution were added to 200 μL of the dissolved lipid solution. The TG, TC, and FFA were analyzed in the same kit as the enzyme kit used for plasma lipid analysis.

A short description of data set [6]: Liver and erythrocyte H2O2 content and TBARs. Conditions: DRH supplementation; increase in NC vs YC.
Setting [7] is: DRH group, aged mice, AIN-93G + 3% DRH 12 weeks, Mean ± SD.

Regarding `O=C(CO)[C@H](O)[C@H](O)[C@H](O)CO` [DRH, D-ribo-2-hexulose], in data set [1] (DRH group vs NC group), the final body weight entry is “significantly lower”, the kidney weight result is on record as “increased”, the liver weight entry was “decreased” and the spleen weight entry is on record as “no significant difference”. The weight gain entry in data set [1] (DRH group vs NC group) was “significantly lower”. In data set [1] (setting [7]), the “Final BW” value is given as 37.59 ± 0.56^$$ g, the “Total BWG” value is reported as 1.36 ± 0.20^$$$ g, the kidney weight is reported as 1.10 ± 0.02^$$ g per 100 g BW and the liver weight is given as 3.71 ± 0.07^$ g per 100 g BW. Further, the spleen weight in data set [1] (setting [7]) is recorded as 0.20 ± 0.02 ^ g per 100 g BW. Besides, in data set [2], the “protein level of AMPK and phosphorylated variant” value was “significantly increased”; the “protein level of Akt and phosphorylated variant” value is listed as “significantly increased”; the “protein level of PGC1-α” value was “significantly increased”; the “protein level of PI3K and phosphorylated variant” value was “significantly increased”. In addition, the “protein level of mTOR and phosphorylated variant” value in data set [2] is “significantly increased”. Further, the “RT-PCR analysis and Western blotting on DEG” value in data set [3] is recorded as “consistent with those obtained by mRNA-seq analysis”. In addition, in data set [4], the “hepatic glucose-6-phosphatase (G6P)” value is “significantly increased”. In data set [5] (DRH group vs NC group), the “muscle fatty acid level” value is on record as “no significant difference”, the “muscle total cholesterol (TC) level” value is “no significant difference” and the plasma fatty acids result is recorded as “significantly decreased”. Further, in data set [5] (increase in NC vs YC), the “plasma TC level” value is “improved” and the “plasma TG level” value is listed as “improved”. Besides, the “muscle triglyceride (TG) level” value in data set [5] (increase with aging) is recorded as “significantly reduced this increase”. The “liver H2O2 content” value in data set [6] is listed as “significantly reduced”.
